Legend:
[1] = test system: human peripheral blood mononuclear cells (PBMC); experiment: PBMC cytotoxicity assay (CellTiter-Glo); format: cell-based; settings: 2 days, pCC50
Outline: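 Human PBMC (50,000 cells/well) stimulated with IFN-γ 100 ng/ml and LPS 50 ng/ml were exposed to 11-point 3-fold compound dilutions for 2 days at 37 °C, 5% CO2. Viability read by CellTiter-Glo ATP luminescence and normalized to no-cell and stimulated-DMSO controls. XC50 derived by four-parameter fit.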

[2] = molecular target: indoleamine 2, 3-dioxygenase (IDO1) (Homo sapiens, UniProt P14902); experiment: IDO1 PBMC RapidFire MS assay (kynurenine detection by mass spectrometry); format: cell-based; set-up: to induce the expression of indoleamine 2, 3-dioxygenase (IDO1); host or cells: human PBMC stimulated with IFN-gamma and LPS; settings: human PBMC stimulated with IFN-γ and LPS, 2 days, pIC50, read-out: PBMC PXC50 (converted)
indoleamine 2, 3-dioxygenase (IDO1), sequence (P14902 whole entry): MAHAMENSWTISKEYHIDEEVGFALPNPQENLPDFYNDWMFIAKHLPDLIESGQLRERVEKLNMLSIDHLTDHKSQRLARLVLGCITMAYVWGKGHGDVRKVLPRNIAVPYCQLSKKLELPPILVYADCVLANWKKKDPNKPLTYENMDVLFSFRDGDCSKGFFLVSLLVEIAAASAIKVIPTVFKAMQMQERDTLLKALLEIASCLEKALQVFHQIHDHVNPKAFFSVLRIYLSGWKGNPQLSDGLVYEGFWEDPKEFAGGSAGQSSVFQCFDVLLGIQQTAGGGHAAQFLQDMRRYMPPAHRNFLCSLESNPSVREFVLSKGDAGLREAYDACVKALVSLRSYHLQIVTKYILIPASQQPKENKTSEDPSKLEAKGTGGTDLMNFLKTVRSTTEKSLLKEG
Outline: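 PBMCs (50,000 cells/well) stimulated with IFN-γ 100 ng/ml plus LPS 50 ng/ml, treated with 11-point 3-fold compound series for 2 days at 37° C. Supernatant kynurenine measured by RapidFire MS, normalised to internal standard; parallel cytotoxicity by CellTiter-Glo luminescence; curves fitted for XC50.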

Structure (SMILES)	IC50 [2]	PBMC TOX PXC50 [1]
CC(C)CN(c1ccc(C(C)CC(=O)O)cc1Nc1nnc(C(=O)NC(C)C)s1)C1CCCCC1 (stereo not drawn) [example 245, 3-{4-[cyclohexyl(2-methylpropyl)amino]-3-({5-[(propan-2-yl)carbamoyl]-1,3,4-thiadiazol-2-yl}amino)phenyl}butanoic acid]	398 nM	<5
CC(C)CN(c1ccc([C@H](C)CC(=O)O)cc1Nc1ncc(C(N)=O)cn1)C1CCOCC1 [example 248, (3R)-3-{3-[(5-carbamoylpyrimidin-2-yl)amino]-4-[(2-methylpropyl)(oxan-4-yl)amino]phenyl}butanoic acid]	> 10000 nM	<5
CC(C)CN(c1ccc(C(C)NC(N)=O)cc1Nc1nc(C(F)(F)F)ns1)C1CCOCC1 (stereo not drawn) [example 249, (1-{4-[(2-methylpropyl)(oxan-4-yl)amino]-3-{[3-(trifluoromethyl)-1,2,4-thiadiazol-5-yl]amino}phenyl}ethyl) urea]	20 nM	<5
CC(C)CN(CC(C)C)c1ccc(C(C)CC(=O)O)cc1Nc1nnn(C(C)C)n1 (stereo not drawn) [example 250, 3-{4-[bis(2-methylpropyl)amino]-3-{[2-(propan-2-yl)-2H-1,2,3,4-tetrazol-5-yl]amino}phenyl}butanoic acid]	1260 nM	<5
CC(C)CN(CC(C)C)c1ccc(C(C)CC(=O)O)cc1Nc1nnn(C)n1 (stereo not drawn) [example 251, 3-{4-[bis(2-methylpropyl)amino]-3-[(2-methyl-2H-1,2,3,4-tetrazol-5-yl)amino]phenyl}butanoic acid]	2000 nM	<5
CC(C)CN(CC(C)C)c1ccc(C(C)CC(=O)O)cc1Nc1nnnn1C (stereo not drawn) [example 252, 3-{4-[bis(2-methylpropyl)amino]-3-[(1-methyl-1H-1,2,3,4-tetrazol-5-yl)amino]phenyl}butanoic acid]	3980 nM	<5
CC(C)CN(c1ccc([C@H](C)CC(=O)O)cc1Nc1ccc(C(N)=O)nn1)C1CCOCC1 [example 253, (3R)-3-{3-[(6-carbamoylpyridazin-3-yl)amino]-4-[(2-methylpropyl)(oxan-4-yl)amino]phenyl}butanoic acid]	316 nM	<5
CC(C)CN(c1ccc([C@H](C)CC(=O)O)cc1Nc1ncc(C#N)cn1)C1CCOCC1 [example 254, (3R)-3-{3-[(5-cyanopyrimidin-2-yl)amino]-4-[(2-methylpropyl)(oxan-4-yl)amino]phenyl}butanoic acid]	126 nM	<5

Continued, in another order:

IC50 [2]	Structure (SMILES)	PBMC TOX PXC50 [1]
20 nM	CC(C)CN(CCCCCNC(=O)c1ccc(C2(C(F)(F)F)N=N2)cc1)c1ccc([C@H](C)CC(=O)O)cc1Nc1nc(C(F)(F)F)ns1 [example 255, (3R)-3-{4-[(2-methylpropyl)[5-({4-[3-(trifluoromethyl)-3H-diazirin-3-yl]phenyl}formamido)pentyl]amino]-3-{[3-(trifluoromethyl)-1,2,4-thiadiazol-5-yl]amino}phenyl}butanoic acid]	<4.3
2510 nM	CC(C)CN(c1ccc(C(C)Nc2c(O)c(=O)c2=O)cc1Nc1nc(C(F)(F)F)ns1)C1CCOCC1 (stereo not drawn) [example 256, 3-hydroxy-4-[(1-{4-[(2-methylpropyl)(oxan-4-yl)amino]-3-{[3-(trifluoromethyl)-1,2,4-thiadiazol-5-yl]amino}phenyl}ethyl)amino]cyclobut-3-ene-1,2-dione]	<5
31.6 nM	CNC(=O)c1nnc(Nc2cc([C@H](C)CC(=O)O)ccc2N(CC(C)C)C2CCOCC2)s1 [example 257, (3R)-3-(3-{[5-(methylcarbamoyl)-1,3,4-thiadiazol-2-yl]amino}-4-[(2-methylpropyl)(oxan-4-yl)amino]phenyl)butanoic acid]	<5
79.4 nM	CO[C@H](C)CN(C[C@@H](C)OC)c1ccc([C@H](C)CC(=O)O)cc1Nc1nc(C(F)(F)F)ns1 [example 258, (3R)-3-(4-{bis[(2R)-2-methoxypropyl]amino}-3-{[3-(trifluoromethyl)-1,2,4-thiadiazol-5-yl]amino}phenyl)butanoic acid]	<5

— US10899754B2, “Modulators of indoleamine 2,3-dioxygenase” (GLAXOSMITHKLINE INTELLECTUAL PROPERTY DEVELOPMENT LIMITED, priority 2016, dated 2021)
